We go through five compounds from patent US20100239523A1 (priority 2007, published 2010).

One assay deals with T1, human TLR4 (Homo sapiens, UniProt O00206).
T1 construct: host or cells: HEK 293
The format is cell-based.

In assay [1] the test system is morphine analgesia in rats. Nature of the assay: Potentiation of intrathecal morphine analgesia, Hargreaves test. The assay is classed as in vivo, rat. Conditions: about 20 μg co-administered with morphine intrathecally, FIG. 6B.

T1 sequence (O00206 24-839): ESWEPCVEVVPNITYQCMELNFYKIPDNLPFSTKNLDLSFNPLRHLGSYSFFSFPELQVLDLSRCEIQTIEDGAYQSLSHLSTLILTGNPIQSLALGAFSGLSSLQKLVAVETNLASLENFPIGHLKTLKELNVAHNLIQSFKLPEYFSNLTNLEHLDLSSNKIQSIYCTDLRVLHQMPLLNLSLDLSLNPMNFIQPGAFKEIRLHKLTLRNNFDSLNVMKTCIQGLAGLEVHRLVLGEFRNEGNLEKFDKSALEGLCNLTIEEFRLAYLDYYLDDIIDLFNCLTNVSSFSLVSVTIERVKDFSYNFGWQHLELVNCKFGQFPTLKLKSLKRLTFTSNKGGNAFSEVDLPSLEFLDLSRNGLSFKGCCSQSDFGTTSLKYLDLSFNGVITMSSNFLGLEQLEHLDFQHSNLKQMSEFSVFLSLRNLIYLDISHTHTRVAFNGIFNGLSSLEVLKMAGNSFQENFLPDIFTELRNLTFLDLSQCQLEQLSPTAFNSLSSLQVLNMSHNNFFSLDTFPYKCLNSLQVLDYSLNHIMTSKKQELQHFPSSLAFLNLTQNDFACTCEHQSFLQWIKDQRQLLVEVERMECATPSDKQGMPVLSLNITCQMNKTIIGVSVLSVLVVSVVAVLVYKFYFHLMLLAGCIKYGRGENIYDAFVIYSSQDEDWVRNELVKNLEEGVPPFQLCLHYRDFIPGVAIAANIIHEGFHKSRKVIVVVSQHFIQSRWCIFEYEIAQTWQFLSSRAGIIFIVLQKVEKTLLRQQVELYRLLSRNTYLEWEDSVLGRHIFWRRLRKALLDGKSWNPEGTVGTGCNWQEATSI
T1 sequence (Q9Y6Y9 17-160 partner limits assumed): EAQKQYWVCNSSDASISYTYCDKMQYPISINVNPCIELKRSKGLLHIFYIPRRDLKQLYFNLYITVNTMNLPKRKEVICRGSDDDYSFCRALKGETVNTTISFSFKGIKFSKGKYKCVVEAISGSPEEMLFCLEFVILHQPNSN

Turning to `COc1ccc2c3c1O[C@H]1C(=O)CC[C@@]4(O)[C@@H](C2)N(C)CC[C@]314` [oxycodone], at human TLR4, the TLR4 agonism entry is “TLR4 agonists”.
Same read-out and setting: as for `CN1CC[C@]23c4c5ccc(O)c4O[C@H]2[C@@H](O)C=C[C@H]3[C@H]1C5` [morphine], the entry is “TLR4 agonists”.
The same measure, in the same setting: to `CCC(=O)C(CC(C)N(C)C)(c1ccccc1)c1ccccc1` (centres unmarked) [methadone] belongs “TLR4 agonists”.
Consider `O=c1c(O)c(-c2ccc(O)c(O)c2)oc2cc(O)cc(O)c12` [quercetin], for which the “potentiation of morphine analgesia” value in assay [1] is given as “significant potentiation”.
In the case of `CCOC(=O)C1(c2ccccc2)CCN(C)CC1` [pethadine/meperidine], the TLR4 agonism result on human TLR4 is given as “TLR4 agonists”.
